Results as given in patent US11819533B2, “Compositions and methods for the treatment of fungal infections” (Cidara Therapeutics, Inc., priority 2017, dated 2023).
Like-named read-outs stand apart in the source and are kept apart here. Starred links: 1 amine or outer side, 2 acyl side, 3 side chain; linkers in the order of their positions; H or OH if unused. Positions of bridges follow the written chain, without caps; N, C: chain ends. Non-standard residues stand in square brackets, D forms with d. Residues, ends and D or L forms follow the SMILES beside them. *: point of attachment. Orn(4R-OH,5R-OCH2CH2NMe3+) = C[N+](C)(C)CCO[C@@H](N[*:3])[C@H](O)C[C@H](N[*:1])C(=O)[*:2]; pTerphenylCO(4''-OnC5H11) = CCCCCOc1ccc(-c2ccc(-c3ccc(C(=O)*)cc3)cc2)cc1; hTyr(3S-OH,4S-OH) = N[C@H](C(=O)O)[C@H](O)[C@@H](O)c1ccc(O)cc1; Pro(3S-OH,4S-Me) = C[C@H]1CN[C@H](C(=O)O)[C@H]1O; Hyp = O=C(O)[C@@H]1C[C@@H](O)CN1

Key:
Type in all cases: physicochemical
[1] = Solubility of CD101 acetate in various media
From the text: Table 1 below provides the solubility of CD101 acetate in different solutions.

[2] = Dropwise addition of CD101 acetate 4 mg/mL solutions to 0.9% saline solution or PBS buffer, observed for drug insolubility
Experimental: CD101 acetate 20 mg/kg dose was prepared in w/w in 5% dextrose solution (CD101 acetate at 4 mg/mL solution) for the following solutions using the salt to free base correction factor of 0.8784 for CD101 acetate: […]
0.5% w/w Tween 80 used. The pH of the solution is 5.21 (22.8 mg CD101 acetate into 5 mL 5% Dextrose with 0.5% w/w Tween 80 (0.1 g Tween 80+19.9 g 5% Dextrose))
1.0% w/w Tween 80 used. The pH of the solutions is 5.27 (22.9 mg CD101 acetate into 5 mL 5% Dextrose with 1.0% w/w Tween 80 (0.2 g Tween 80+19.8 g 5% Dextrose))
2.5% w/w Tween 80 used. The pH of the solutions is 5.29 (22.7 mg CD101 acetate into 5 mL 5% Dextrose with 2.5% w/w Tween 80 (0.5 g Tween 80+[…] 5% Dextrose))
1.0% w/w Tween 80 used. The pH of the solution was adjusted to 6.64 using 0.1 N NaOH. (22.9 mg CD101 acetate into 5 mL 5% Dextrose with 1.0% w/w Tween 80 (0.2 g Tween 80+19.8 g 5% Dextrose))

[3] = PBS buffer drop test (Example 3)
Experimental: These solutions were tested for solubility in the PBS drop test, which involved adding the solution dropwise into PBS solution (1:4.3 dilution) and visually observing the resulting solution for any precipitation. PBS buffer serves as a surrogate for plasma, and the PBS drop test is used to evaluate the potential for insolubility as the drug enters the bloodstream at the injection site.

[4] = 4 mg/mL in 5% dextrose and 1.0% Tween 80, adjusted to 6.64 pH using 0.1N NaOH
[5] = 4 mg/mL in 5% dextrose and 1.0% Tween 80, pH 5.3
[6] = 4 mg/mL in 5% dextrose and 2.5% Tween 80, pH 5.3

## CCCCCOc1ccc(-c2ccc(-c3ccc(C(=O)N[C@H]4C[C@@H](O)[C@@H](OCC[N+](C)(C)C)NC(=O)[C@@H]5[C@@H](O)[C@@H](C)CN5C(=O)[C@H]([C@@H](C)O)NC(=O)[C@H]([C@H](O)[C@@H](O)c5ccc(O)cc5)NC(=O)[C@@H]5C[C@@H](O)CN5C(=O)[C@H]([C@@H](C)O)NC4=O)cc3)cc2)cc1 [CD101 acetate] ({pTerphenylCO(4''-OnC5H11)}-[Orn(4R-OH,5R-OCH2CH2NMe3+)]T[Hyp][hTyr(3S-OH,4S-OH)]T[Pro(3S-OH,4S-Me)]; lactam 1-C)
[1]; aqueous with cosolvent or surfactant or cyclodextrin, 2.5% Tween 80, 5% mannitol, 0.3% acetic acid, pH 4.5, maximum solubility not reached, read-out: Solubility
  solubility: > 16000 µg/mL
[1]; aqueous with cosolvent or surfactant or cyclodextrin, Lactated Ringer's Solution for Injection (USP), prepared from stock in USP water with 0.7% Tween 20, maximum solubility not reached, read-out: Solubility
  solubility: > 800 µg/mL
[1]; aqueous with cosolvent or surfactant or cyclodextrin, PBS buffer with 1% Tween 20, pH 7.4, maximum solubility not reached, read-out: Solubility
  solubility: > 370 µg/mL
[1]; saline or isotonic, 0.09% Saline, maximum solubility not reached, read-out: Solubility
  solubility: > 1400 µg/mL
[1]; saline or isotonic, 0.225% Saline (USP), maximum solubility not reached, read-out: Solubility
  solubility: > 1200 µg/mL
[1]; saline or isotonic, 0.45% Saline (USP), maximum solubility not reached, read-out: Solubility
  solubility: > 1300 µg/mL
[1]; saline or isotonic, 0.9% Saline (USP), read-out: Solubility
  solubility: < 180 µg/mL
[1]; saline or isotonic, 5% D-Mannitol, maximum solubility not reached, read-out: Solubility
  solubility: > 4000 µg/mL
[1]; saline or isotonic, 5% Dextrose Solution (USP), maximum solubility not reached, read-out: Solubility
  solubility: > 12000 µg/mL
[1]; saline or isotonic, 5% dextrose, 5% mannitol and 0.22%-0.45% Sterile Saline Solution, read-out: Solubility (soluble)
  solubility: > 1000 µg/mL
[1]; saline or isotonic, Lactated Ringer's Solution for Injection (USP), read-out: Solubility
  solubility: < 100 µg/mL
[2]; [4]
  Appearance after 1.5 mL added to (A) 5 mL 0.9% saline solution: Clear
  Appearance after 1.5 mL added to (B) 5 mL PBS buffer: Clear
[2]; [5]
  Appearance after 1.5 mL added to (A) 5 mL 0.9% saline solution: Clear
  Appearance after 1.5 mL added to (B) 5 mL PBS buffer: Clear
[2]; [6]
  Appearance after 1.5 mL added to (A) 5 mL 0.9% saline solution: Clear
  Appearance after 1.5 mL added to (B) 5 mL PBS buffer: Clear
[3]; 0.3% acetic acid, 1.25% Tween 80 and 5% mannitol, pH 4.5, 6.0 mg/mL, 1.4 mg/mL in PBS
  Appearance upon PBS drop test: Clear
[3]; 0.3% acetic acid, 2.5% Tween 80 and 5% mannitol, pH 4.5, 4 mg/mL, 0.92 mg/mL in PBS
  Appearance upon PBS drop test: Clear
[3]; 0.3% acetic acid, 2.5% Tween 80 and 5% mannitol, pH 4.5, 6.0 mg/mL, 1.4 mg/mL in PBS
  Appearance upon PBS drop test: Clear
[3]; 0.3% acetic acid, 2.5% Tween 80 and 5% mannitol, pH 4.5, 8.0 mg/mL, 1.8 mg/mL in PBS
  Appearance upon PBS drop test: Clear
[3]; 0.9% Saline, pH 5.3, 2.8% Tween 80, 4 mg/mL
  Appearance upon PBS drop test: Clear
[3]; 0.9% Saline, pH 6.6, 2.5% Tween 80, 4 mg/mL
  Appearance upon PBS drop test: Clear
[3]; 0.9% Saline, pH 7.2, 1.75% Tween 80, 4 mg/mL
  Appearance upon PBS drop test: Clear
[3]; 0.9% Saline, pH 7.2, 2.5% Tween 80, 4 mg/mL
  Appearance upon PBS drop test: Clear
[3]; 0.9% Saline, reverse addition (CD101 acetate and Tween 80 mixed first, then saline added), 1.75% Tween 80, 4 mg/mL
  Appearance upon PBS drop test: Clear
[3]; 5% Mannitol/25 mM Na Acetate, pH 4.63, 2.5% Tween 80, 4 mg/mL
  Appearance upon PBS drop test: Clear
[3]; 5% Mannitol/30 mM Na Lactate, pH 5.45, 2.5% Tween 80, 4 mg/mL
  Appearance upon PBS drop test: Clear
[3]; 5% Mannitol/0.3% Acetic Acid, pH 3.54, 2.5% Tween 80, 4 mg/mL
  Appearance upon PBS drop test: Clear
[3]; PBS buffer pH 7.4, pH 7.13, 1.75% Tween 80, 4 mg/mL
  Appearance upon PBS drop test: Clear
